Measured values taken from patent publication US20200352905A1, “6-(2,4-DICHLOROPHENYL)-5-[4-[(3S)-1-(3-FLUOROPROPYL)PYRROLIDIN-3-YL]OXYPHENYL]-8,9-DIHYDRO-7H-BENZO[7]ANNULENE-2-CARBOXYLIC ACID FOR USE IN METASTATIC OR ADVANCED BREAST CANCER PATIENTS” (SANOFI, priority 2019, published 2020).
Entries after “also recorded” stand apart in the source; their conditions may differ.

Experiments:
[1] = Phase 1/2 study TED14856 Part A (dose escalation): safety, DLT, TEAEs; assay type: in vivo
Protocol: This is an open-label, non-comparative, dose escalation and dose expansion, safety, efficacy, PK and PD evaluation study of compound (1) administered orally as monotherapy.
Dose escalation is initiated with a once daily (QD) schedule with a starting dose of 20 mg/day. Dose escalation is expected to proceed according to the Table A below. Intra-patient dose escalation is not permitted.
Part A of this study is designed using the 3+3 concept: 3 to 6 patients are treated at each dose level, depending on DLTs observed in the first 3 patients. If one of the first 3 evaluable patients experiences DLT during Cycle 1, this cohort is expanded with a total of up to 6 patients. If less than 1 out of 3 patients or less than 2 out of 6 patients experience DLTs at a given dose level, the dose escalation is proceeded to the next dose level.
(§1) For the QD regimen, during Cycle 1, one dose is taken on Day 1 in fasting condition, no dose on Day 2 and repeated administration starts from Day 3. On Day 3 only, the dose is taken in fed condition for a food effect evaluation, and then all subsequent administrations are taken in fasted condition, and at approximately the same time each day (±3 hours). From the conclusions drawn with the initial QD dose regimen, patients treated with other dose regimens are allowed to take Compound (1) in fasted or fed condition. For the BID regimen, the 600 mg dose is split in two drug administrations: 300 mg taken two times a day 12 hours apart (i.e. 2×300 mg)±1 hour with or without food (with one dose only taken in the morning on Day 1, no dose on Day 2 and then repeated BID dosing from Day 3).
Incidence of study treatment-related DLTs at Cycle 1 (Day 1 to Day 28). DLT is defined as the occurrence of any of the following treatment-emergent adverse events (TEAEs) related to the study therapy using NCI-CTCAE (v4.03): • Any Grade ≥3 non-hematological toxicity, except: • Grade 3 nausea and vomiting resolving to Grade ≤1 within 48 hours, with or without adequate antiemetic treatment, • Grade 3 diarrhea, if controlled with adequate antidiarrheal therapy and lasting less than 48 hours. • Any Grade ≥3 hematological toxicity, except • Grade 3 anemia, • Grade 4 neutropenia <7 days, • Grade 3 neutropenia without fever or infection, • Grade 3 thrombocytopenia without bleeding. • Any elevated total serum bilirubin >2×ULN. • Any toxicity related to study treatment, resulting in omission of the study treatment for 7 days or more during Cycle 1. • A TEAE that in the opinion of the study committee is possibly or probably study treatment-related and is of potential clinical significance such that further dose escalation would expose patients to unacceptable risk.
These TEAEs are considered as study treatment-related in the absence of evidence to the contrary and if not related to disease progression. If multiple toxicities are seen, the presence of DLT will be based on the most severe experienced toxicity. At the end of Cycle 1, each patient must be assessed by the Investigator as to whether or not the patient experienced DLT, and this information must be recorded within the appropriate screen of the electronic case report forms (eCRFs) and an electronic DLT notification (either DLT or not) is sent to the Sponsor. Patients can continue the treatment after resolution (Grade 1) of the adverse event (AE) or to their baseline status. Patients need to complete at least 75% of the intended doses at Cycle 1 to be evaluable and shall have ^18FES-PET scans evaluable at baseline and between Day 11 and Day 15 to be evaluable for DLTs in Part A.
Safety population includes all patients exposed to at least one dose of the study treatment.
Study treatment-related DLTs occurring during Cycle 1 are assessed and analyzed on the DLT-evaluable population. In addition, AEs meeting DLT criteria occurring in any additional cycle are assessed and analyzed on the safety population. […]

[2] = Pilot food effect on PK (moderate fat breakfast, Day 3 Cycle 1, Part A); assay type: in vivo, human
Protocol: Pilot food effect: A pilot food effect is assessed by PK sampling after drug administration with a moderate fat breakfast on Day 3 of Cycle 1 in all patients treated in Part A. All other dosing in Part A is taken in fasted condition. If results from the QD dosing regimen allow conclusions to be drawn, this will not be implemented for other dosing regimens (eg, BID) that are explored.
as §1
The food effect is assessed by comparing AUC0-24 and Cmax between Day 1/Cycle 1 and Day 3/Cycle 1 in Part A.

Compound: O=C(O)c1ccc2c(c1)CCCC(c1ccc(Cl)cc1Cl)=C2c1ccc(O[C@H]2CCN(CCCF)C2)cc1 [compound (1), 6-(2,4-dichlorophenyl)-5-[4-[(3S)-1-(3-fluoropropyl)pyrrolidin-3-yl]oxyphenyl]-8,9-dihydro-7H-benzo[7]annulene-2-carboxylic acid]
- Patients with related TEAE: Urinary tract infection ([1]; Part A, N=16): 0 n
- maximum tolerated dose (MTD) ([1]; Part A, up to 600 mg QD): not reached; also recorded: no MTD observed
- patients who died during study period ([1]; Part A, 3 disease progression, 1 unknown reason): 4 patients
- patients with serious TEAEs ([1]; Part A, all considered not associated with compound (1)): 3 patients
- Patients with Gr3 TEAE: Abdominal pain upper ([1]; female, human, in vivo): 0 n
- Patients with Gr3 TEAE: Arthralgia ([1]; female, human, in vivo): 0 n
- Patients with Gr3 TEAE: Asthenia ([1]; female, human, in vivo): 0 n
- Patients with Gr3 TEAE: Constipation ([1]; female, human, in vivo): 0 n
- Patients with Gr3 TEAE: Cough ([1]; female, human, in vivo): 0 n
- Patients with Gr3 TEAE: Decreased appetite ([1]; female, human, in vivo): 0 n
- Patients with Gr3 TEAE: Diarrhea ([1]; female, human, in vivo): 0 n
- Patients with Gr3 TEAE: Dry skin ([1]; female, human, in vivo): 0 n
- Patients with Gr3 TEAE: Dysgeusia ([1]; female, human, in vivo): 0 n
- Patients with Gr3 TEAE: Hot flush ([1]; female, human, in vivo): 0 n
- Patients with Gr3 TEAE: Hypertension ([1]; female, human, in vivo): 0 n
- Patients with Gr3 TEAE: Hypoaesthesia ([1]; female, human, in vivo): 0 n
- Patients with Gr3 TEAE: Musculoskeletal chest pain ([1]; female, human, in vivo): 0 n
- Patients with Gr3 TEAE: Myalgia ([1]; female, human, in vivo): 0 n
- Patients with Gr3 TEAE: Nasopharyngitis ([1]; female, human, in vivo): 0 n
- Patients with Gr3 TEAE: Nausea ([1]; female, human, in vivo): 0 n
- Patients with Gr3 TEAE: Night sweat ([1]; female, human, in vivo): 0 n
- Patients with Gr3 TEAE: Pain ([1]; female, human, in vivo): 0 n
- Patients with Gr3 TEAE: Photophobia ([1]; female, human, in vivo): 0 n
- Patients with Gr3 TEAE: Rash ([1]; female, human, in vivo): 0 n
- Patients with Gr3 TEAE: Upper respiratory tract infection ([1]; female, human, in vivo): 0 n
- Patients with Gr3 TEAE: Vomiting ([1]; female, human, in vivo): 0 n
- Patients with related Gr3 TEAE: ALL ([1]; female, human, in vivo): 0 n
- Patients with related Gr3 TEAE: Abdominal pain upper ([1]; female, human, in vivo): 0 n
- Patients with related Gr3 TEAE: Arthralgia ([1]; female, human, in vivo): 0 n
- Patients with related Gr3 TEAE: Asthenia ([1]; female, human, in vivo): 0 n
- Patients with related Gr3 TEAE: Back pain ([1]; female, human, in vivo): 0 n
- Patients with related Gr3 TEAE: Constipation ([1]; female, human, in vivo): 0 n
- Patients with related Gr3 TEAE: Cough ([1]; female, human, in vivo): 0 n
- Patients with related Gr3 TEAE: Decreased appetite ([1]; female, human, in vivo): 0 n
- Patients with related Gr3 TEAE: Diarrhea ([1]; female, human, in vivo): 0 n
- Patients with related Gr3 TEAE: Dry skin ([1]; female, human, in vivo): 0 n
- Patients with related Gr3 TEAE: Dysgeusia ([1]; female, human, in vivo): 0 n
- Patients with related Gr3 TEAE: Dyspnoea ([1]; female, human, in vivo): 0 n
- Patients with related Gr3 TEAE: Fatigue ([1]; female, human, in vivo): 0 n
- Patients with related Gr3 TEAE: Hot flush ([1]; female, human, in vivo): 0 n
- Patients with related Gr3 TEAE: Hypertension ([1]; female, human, in vivo): 0 n
- Patients with related Gr3 TEAE: Hypoaesthesia ([1]; female, human, in vivo): 0 n
- Patients with related Gr3 TEAE: Musculoskeletal chest pain ([1]; female, human, in vivo): 0 n
- Patients with related Gr3 TEAE: Myalgia ([1]; female, human, in vivo): 0 n
- Patients with related Gr3 TEAE: Nasopharyngitis ([1]; female, human, in vivo): 0 n
- Patients with related Gr3 TEAE: Nausea ([1]; female, human, in vivo): 0 n
- Patients with related Gr3 TEAE: Night sweat ([1]; female, human, in vivo): 0 n
- Patients with related Gr3 TEAE: Pain ([1]; female, human, in vivo): 0 n
- Patients with related Gr3 TEAE: Photophobia ([1]; female, human, in vivo): 0 n
- Patients with related Gr3 TEAE: Rash ([1]; female, human, in vivo): 0 n
- Patients with related Gr3 TEAE: Upper respiratory tract infection ([1]; female, human, in vivo): 0 n
- Patients with related Gr3 TEAE: Urinary tract infection ([1]; female, human, in vivo): 0 n
- Patients with related Gr3 TEAE: Vomiting ([1]; female, human, in vivo): 0 n
- Patients with related TEAE: Cough ([1]; female, human, in vivo): 0 n
- Patients with related TEAE: Dysgeusia ([1]; female, human, in vivo): 0 n
- Patients with related TEAE: Hypoaesthesia ([1]; female, human, in vivo): 0 n
- Patients with related TEAE: Musculoskeletal chest pain ([1]; female, human, in vivo): 0 n
- Patients with related TEAE: Nasopharyngitis ([1]; female, human, in vivo): 0 n
- Patients with related TEAE: Rash ([1]; female, human, in vivo): 0 n
- Patients with related TEAE: Upper respiratory tract infection ([1]; female, human, in vivo): 0 n
- serious TEAEs reported ([1]; female, human, in vivo): 4
- Tmax ([2]; female, human, plasma, oral, overall across doses, read-out: delay of median tmax with food): ~1 h
- increase of exposure with food ([2]; overall across doses): about 45%
- food effect on exposure ([2]; regardless of dose level): did not result in a major effect on exposure; also recorded: minimal
